Source: article PMC12188386, “Selective CBP/EP300 Bromodomain Inhibitors: Novel Epigenetic Tools to Counter TNF-α-Driven Inflammation” (JACS Au, 2025)

Key:
[1] = concentration in saturated 12.5% CAPTISOL solution; format: physicochemical; details: filtered 12.5 w/v% CAPTISOL in water, st. dev. between technical replicates (n=2)
Procedure: was used as the calibration curve. To obtain saturated solutions of the compounds of interest, in duplicates 4.4 µL of a 10 or 5 mM stock in DMSO was added to 436 µL Buffer (PBS, pH = 7.4), to give a final concentration of 100 or 50 µM. Samples were incubated on a shaker (500 rpm) at 37°C for 90 minutes and then filtered (Millex-GV 13 mm, 0.22 µm). 304 µL of the filtrate was mixed with 76 µL of acetonitrile on a dilution plate, from which 350 µL was transferred to a UV-plate and UV-absorption was read using a SpectraMax M5 (Molecular devices). The absorbance was blank-corrected and compared to the calibration curve to […]
solubility. The wavelengths used for the calibration curve are available in Table S4.
Sample preparation in CAPTISOL® […]
lower solubility (2) compounds respectively in a 12.5 w/v% CAPTISOL® solution in water. In a precisely tared vial, required amounts of compounds and CAPTISOL® were weighed out as solids. Based on the known density of 12.5 % CAPTISOL® solution (d = 1.05755 g/mL at 25 °C), the precise weight of the resulting solution and so the required amount of water by weight was calculated. The water was added portion wise with agitation, vortexing and sonication cycles in between additions. The saturated solutions were then filtered (Millex-GV 13 mm, 0.22 µm). In duplicates, aliquots of the filtrates were taken and diluted with blank 12.5 % CAPTISOL® water solution in either a 1:14 (higher sol. compounds) or 1:7 (lower sol. compounds) ratio, 350 µL was transferred to a 96-Well Plate (Greiner, UV-star) then UV absorption (240-400 nm, 10 nm steps) was measured using a SpectraMax M5 (Molecular devices). The absorption was blank-corrected, compared to the calibration curve obtained during the solubility measurement method above and finally corrected for the dilution ratio to obtain the compound concentration in the saturated 12.5 % CAPTISOL® solution. The calculated concentrations are available in Table S4.
BROMOscan™ assays (provided by Eurofins DiscoverX, US)1,2 […]
coli host derived from the BL21 strain. […]

[2] = test system: rmTNF-α-induced cytokines in the popliteal lymph node; experiment: TNF-α induced inflammation model, cytokines in pLN (LEGENDplex); format: in vivo, mouse; details: mice, 5 h post-rmTNF-α; for concentrations of IL-1β, MCP-1, IL-1α and IL-6 in the pLN: CAPTISOL solutions s.c. (footpad) and i.p. 90 min after rmTNF-α, vs rmTNF-α + CAPTISOL
Procedure: C57BL/6 mice were bred in -house or acquired from Charles River Laboratories. Mice were maintained in specific pathogen -free facilities at the Institute for Research in Biomedicine, Bellinzona. Experiments were performed following the Swiss Federal Veterina ry Office guidelines and authorized by the relevant institutional committee of the Cantonal Veterinary (Commissione cantonale per gli esperimenti sugli animali, Ticino) .
TNF-α induced inflammation model
Recombinant Mouse TNF-α (rmTNF-α) (aa 80-235) Protein (Cat# 410-MT-050/CF) was purchased from RnDsystems® and resuspended following instruction into sterile PBS. Mice were anesthetized with isoflurane and 300 ng of rmTNF-α was administered subcutaneously in the footpad (10 µL injection volume), and for the experiments with the CBP/EP300 inhibitors an additional 300 ng of rmTNF-α was also administered intraperitoneally (100 µL injection volume). After 1.5 h, mice were injected with 10 µL of the prepared CAPTISOL […]
foodpad and also intraperitoneally (for i.p. injection, the 10 µL of CAPTISOL solution was diluted to a final volume of 100 µL using PBS). Organs were collected 5 h after TNF-α […]
LEGENDPlexTM assays (Mouse Pro-inflammatory Chemokine Panel and Mouse Inflammation Panel; Biolegend) were performed to monitor cytokine/chemokine expression. Briefly, popliteal LNs were collected and carefully disrupted in […] ice-cold phosphate buffer, minimizing cell rupture. The suspension was centrifuged at 1,500 rpm for 5 min, and the […]
supernatant was c ected. μ supernatant was used f r the pr t c f win the manufacturer’s instructi ns. amp es were ana zed f w c t metr n an rtessa Biosciences), and data was analyzed using LEGENDPlex software (BioLegend).
Popliteal LNs were collected, disrupted with tweezers, and digested for 10 min at 37°C in an enzyme mix composed of DNase I (0.28 mg/mL, Amresco), dispase (1 U/mL, Corning), and collagenase P (0.5 mg/mL, Roche) in calcium- and magnesium-free PBS (PBS-, Sigma-Aldrich) followed by a stop solution composed of 2 mM EDTA (Sigma -Aldrich) and 2% heat-inactivated filter-sterilized fetal calf serum (Thermo Fisher Scientific) in PBS -. […] Where indicated, intracellular staining was performed using Intracellular Fixation and Permeabilization Buffer Set (eBioscience), following the manufacturer’s instructi ns. ead ce s were exc uded u sing Zombie fixable viability dye (Biolegend), and data were analyzed using FlowJo software (TriStar Inc).
In this study, various combinations of the following fluorescence -conjugated antibodies have been used for cell-surface phen t pic stainin : α - α α […]
Data was analysed and graphs prepared using GraphPad Prism. […]

For `Cc1cc2c(NC(=O)c3cc(NC(=O)c4ccco4)cc(-c4ccn(C)n4)c3)cccc2nn1` [Compound 2], the “Conc. in 12.5% Captisol sol.” value [1] was 160 ± 1 µM, the “decrease of IL-6 in the pLN compared to GNE-272” value [2] was 4 fold and the “concentrations of IL-1β, MCP-1, IL-1α and IL-6 in the pLN” value [2] was “significant reduction”.

For `Cc1cc2c(NC(=O)c3cc(NC(=O)[C@H]4CCCO4)cc(-c4ccn(C)n4)c3)cccc2nn1` [Compound 5], the “Conc. in 12.5% Captisol sol.” value [1] was 790 ± 18 µM, the “decrease of IL-6 in the pLN compared to GNE-272” value [2] was 7 fold and the “concentrations of IL-1β, MCP-1, IL-1α and IL-6 in the pLN” value [2] was “significant reduction”.
